Values of other authors in PMC4232510, “Identification of Functionally Important Residues of the Rat P2X4 Receptor by Alanine Scanning Mutagenesis of the Dorsal Fin and Left Flipper Domains” (PLoS ONE, 2014).
Where two headings read alike, the source gives them in different places.

How the values were obtained:
Conditions in all cases: cited from earlier work
P2X1R N290A = test system: P2X1R N290A; set-up: method as in PMID 16371009
P2X1R N204A = test system: P2X1R N204A; set-up: method as in PMID 16371009
P2X1R G288C = test system: P2X1R G288C; set-up: method as in PMID 17428985
P2X3R N279A = test system: P2X3R N279A; set-up: method as in PMID 21098022
P2X4R H286A = test system: P2X4R H286A; set-up: method as in PMID 17663752, PMID 15632318, PMID 12819199, PMID 15246547
P2X3R E197A = test system: P2X3R E197A; set-up: method as in PMID 15475563; key: n.f.: non-functional mutants; ↑: mutant with significant increased EC50 in comparison to WT (values represent fold increase); ≈: close to WT receptor; D: affected time-constant of the desensitizing current response
P2X4R N287A = test system: P2X4R N287A; set-up: method as in PMID 17663752, PMID 15632318; key: n.f.: non-functional mutants; ↑: mutant with significant increased EC50 in comparison to WT (values represent fold increase); ≈: close to WT receptor; D: affected time-constant of the desensitizing current response
P2X4R V288A = test system: P2X4R V288A; set-up: method as in PMID 24943126
P2X3R S269A = test system: P2X3R S269A; set-up: method as in PMID 16226373; key: n.f.: non-functional mutants; ↑: mutant with significant increased EC50 in comparison to WT (values represent fold increase); ≈: close to WT receptor; D: affected time-constant of the desensitizing current response
P2X4R L206A = test system: P2X4R L206A; set-up: method as in PMID 24943126; key: n.f.: non-functional mutants; ↑: mutant with significant increased EC50 in comparison to WT (values represent fold increase); ≈: close to WT receptor; D: affected time-constant of the desensitizing current response
P2X4R L214A = test system: P2X4R L214A
P2X4R I205A = test system: P2X4R I205A; set-up: method as in PMID 24943126
P2X2R D277A = test system: P2X2R D277A; set-up: method as in PMID 18194442; key: n.f.: non-functional mutants; ↑: mutant with significant increased EC50 in comparison to WT (values represent fold increase); ≈: close to WT receptor; D: affected time-constant of the desensitizing current response

## Nc1ncnc2c1ncn2[C@@H]1O[C@H](COP(=O)(O)OP(=O)(O)OP(=O)(O)O)[C@@H](O)[C@H]1O [ATP]
P2X1R N290A
  fold increase of EC50 for ATP in comparison to WT: N290A: ↑>50x[45]
P2X1R N204A
  fold increase of EC50 for ATP in comparison to WT: N204A: ↑3,5x[45]
P2X1R G288C
  fold increase of EC50 for ATP in comparison to WT: 10 x
P2X3R N279A
  fold increase of EC50 for ATP in comparison to WT: N279A: ↑20x[4]
P2X4R H286A
  fold increase of EC50 for ATP in comparison to WT: H286A: ↑2–4x[10], [52], [57], [60]
P2X3R E197A
  change in desensitization: E197A: D[53]
P2X4R N287A
  change in EC50 for ATP: N287A: ≈[10], [52]
P2X4R V288A
  fold increase of EC50 for ATP in comparison to WT: V288A: ↑2x[49]
P2X3R S269A
  change in desensitization: S269A: D[54]
P2X4R L206A
  change in EC50 for ATP: L206A: ≈[49]
P2X4R L214A; ref 41
  fold increase of EC50 for ATP in comparison to WT: 8 x
P2X4R L214A; ref 49
  fold increase of EC50 for ATP in comparison to WT: 3 x
P2X4R I205A
  fold increase of EC50 for ATP in comparison to WT: I205A: ↑2,5x[49]
P2X2R D277A
  change in EC50 for ATP: D277A:: ≈[56]
